We go through eleven compounds from PubChem BioAssay (NCI).

What all share (assay): NCI anticancer screen, dose series, 48 h
Assay [1] relates to K-562 leukemia.
The subject of assay [2] is HOP-92 NSCLC.
Assay [3] relates to COLO 205 colon.
Assay [4] relates to MDA-MB-231 breast.
Assay [5] has as its system SK-MEL-2 melanoma.
Assay [6] concerns SF-268 CNS.
In assay [7] the test system is A549 NSCLC.
Assay [8] relates to MOLT-4 leukemia.
For assay [9], the system named is MCF7 breast.
Assay [10] has as its system UACC-62 melanoma.

Structures are written as SMILES.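 Tested at 5 concentrations; 48 h exposure; 96-well plates; endpoints linearly interpolated, else capped at highest concentration. GI50: concentration for 50% inhibition of growth. Definition used: TGI = concentration required for complete inhibition of growth.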 Bounds are passed on as bounds.

In the case of `COC(=O)c1cc2ccccc2c2c3c(ccc12)OCO3`, the GI50 in assay [1] was 658 µM; in [2], 17.4 µM; in assay [4], 59.7 µM; in assay [5], 49.9 µM; in assay [6], 50.6 µM; in [7] it was 117 µM. In addition, the figures for the GI50 in assay [8], in [9] and in assay [10] were 794 µM, 306 µM and 40.1 µM, respectively. Further, the TGI in assay [1] was more than 1000 µM; in assay [2], 73 µM; in assay [3], more than 1000 µM; in [4], more than 1000 µM; in [5], 334 µM; in assay [6], 371 µM. Also, the TGI in [7], in assay [8], in assay [9] and in assay [10] was more than 1000 µM throughout.

Take `O=[N+]([O-])c1ccc(N=Nc2ccc(O)c3ccccc23)cc1`: the GI50 in assay [1] was 3.13 µM; in assay [2] it was 0.281 µM; in assay [3] it was 13.2 µM; in assay [4] it was 1.43 µM; in assay [5], 3.23 µM; in assay [6] it was 2.9 µM. Besides, the GI50 in assay [7] was 12 µM; in assay [8], 5.22 µM; in assay [9], 2.42 µM; in assay [10], 4.76 µM. The TGI in assay [1] is more than 100 µM; in assay [2], 2.94 µM; in assay [3] it was 32.1 µM; in assay [4], 20.8 µM; in assay [5], 21.8 µM; in [6], more than 100 µM. Moreover, the TGI in [7] is more than 100 µM; in assay [8], more than 100 µM; in [9], more than 100 µM; in assay [10] it was 32.9 µM.

On to `COc1ccc(NC(=S)c2ccoc2C)cc1CC(=O)OC(C)C`, for which the TGI was more than 100 µM in [1]; 67.9 µM in assay [2]; 36.7 µM in [3]; more than 100 µM in assay [4]; 40.6 µM in assay [5]; more than 100 µM in [6]. In addition, the TGI in assay [7] was more than 100 µM; in assay [8], 80.4 µM; in assay [9], 51.5 µM; in [10], more than 100 µM.

In the case of `CN(C)c1ccc(C(=NO)c2ccc(N(C)C)cc2)cc1`, the GI50 in assay [1] was 0.418 µM; in [2] it was 15.2 µM; in assay [3] it was 3.51 µM; in assay [4], 4.85 µM; in assay [5], 3.57 µM; in assay [6], 4.71 µM. Also, the GI50 in [7] is 3.34 µM; in assay [8], 3.02 µM; in [9] it was 1.71 µM; in assay [10], 2.11 µM. Besides, the TGI in assay [1] is more than 100 µM; in assay [2] it was more than 100 µM; in [3], 22.4 µM; in assay [4], more than 100 µM; in [5], more than 100 µM; in [6] it was more than 100 µM. Moreover, the TGI in [7], in [8], in assay [9] and in [10] was more than 100 µM each time.

Consider `CC(C)(C)c1[nH]nc2c1C(c1cc3ccccc3[nH]c1=O)Nc1cc(C(=O)OCc3ccccc3)ccc1N2` (centres undefined), for which the GI50 in assay [1] is 4.18 µM; in assay [2], 1.35 µM; in assay [3], 3.54 µM; in assay [4], 5.91 µM; in assay [5] it was 3.33 µM; in assay [6] it was 4.82 µM. Besides, the GI50 was 3.33 µM in assay [7], 3.3 µM in assay [8], 3.37 µM in [9] and 1.9 µM in assay [10]. Besides, the TGI in assay [1] was more than 100 µM; in [2], 8.34 µM; in assay [3], 10.4 µM; in assay [4], more than 100 µM; in [5], 7.28 µM; in assay [6], more than 100 µM. The TGI in assay [7] was more than 100 µM; in assay [8], 44.1 µM; in assay [9], more than 100 µM; in assay [10], 3.9 µM.

Regarding `COc1ccc(/C=C(\C(=O)NCc2cccnc2)S(=O)(=O)c2ccccc2)cc1OC`, the GI50 in [1] is 3.33 µM; in assay [2] it was 2.59 µM; in [3] it was 2.77 µM; in assay [4] it was 2.93 µM; in assay [5], 3.01 µM; in assay [6], 3.32 µM. Besides, the GI50 in assay [7] was 2.86 µM; in assay [8], 3.35 µM; in assay [9], 2.41 µM; in assay [10], 1.76 µM. Further, the TGI in assay [1] is more than 100 µM; in assay [2] it was 7.33 µM; in assay [3] it was 6.63 µM; in assay [4], 10.6 µM; in [5], 12.7 µM; in assay [6], 15.9 µM. For the same compound, the TGI in assay [7] stood at 13.4 µM; in assay [8], 89.1 µM; in assay [9], 12.7 µM; in assay [10], 3.74 µM.

For the compound `C#CCNCCN1C(=O)c2ccc3c4c(ccc(c24)C1=O)C(=O)N(CCNCC#C)C3=O`, the GI50 is 5.25 µM in [1]; 7.39 µM in assay [2]; 2 µM in [3]; 5.24 µM in assay [4]; 6.57 µM in assay [5]; 3.78 µM in assay [6]. In addition, the GI50 in assay [7] is 2.69 µM; in [8], 3.54 µM; in assay [9], 2.67 µM; in assay [10], 1.71 µM. Moreover, the TGI in assay [1] was 50 µM; in assay [2], 22.9 µM; in assay [3] it was 6.92 µM; in assay [4], 13.6 µM; in [5], 14.1 µM; in assay [6] it was 24.2 µM. The TGI in assay [7] is 11.6 µM; in [8] it was 16.7 µM; in assay [9], 13.4 µM; in [10], 6.68 µM.

For `O=C(Nc1ccc(Oc2cccc(F)c2)c(Cl)c1)c1cnccn1`, the GI50 was 0.242 µM in [1]; 1.44 µM in assay [2]; 0.789 µM in assay [3]; 3.28 µM in [4]; 2.15 µM in assay [5]; 7.81 µM in assay [6]. Also, the GI50 in assay [7] is 0.938 µM; in [8] it was 1.85 µM; in [9], 0.413 µM; in assay [10], 2.72 µM. Besides, the TGI in [1], in assay [2], in assay [3], in [4], in [5] and in assay [6] was more than 50 µM in each case. Further, the TGI in assay [7], in assay [8], in assay [9] and in assay [10] was more than 50 µM throughout.

Consider `O1[As]2O[As]3O[As]1O[As](O2)O3`, for which the GI50 in assay [1] is 0.317 µM; in [2], 0.238 µM; in assay [3], 1.67 µM; in assay [4], 0.648 µM; in [5], 1.84 µM; in assay [6] it was 0.456 µM. The GI50 was 3.29 µM in [7], 1.28 µM in assay [8], 0.388 µM in assay [9] and 0.574 µM in assay [10]. Further, the TGI in [1] was 2.99 µM; in [2], 0.897 µM; in assay [3], 4.5 µM; in [4], 2.96 µM; in [5] it was 16.7 µM; in assay [6] it was 1.86 µM. Also, the TGI in [7] was found to be 14.9 µM; in assay [8], 4.58 µM; in [9], 2.29 µM; in assay [10], 2.18 µM.

As to `Cc1cnc(CNC(=O)c2c(=O)c3ccc(N4CCCN(C)CC4)nc3n3c2sc2ccccc23)cn1`, the GI50 in [1] was 1.82 µM; in [2] it was 16.4 µM; in assay [3], 1.07 µM; in assay [4] it was 2.79 µM; in assay [5], 12.5 µM; in assay [6], 1.55 µM. In addition, the GI50 in assay [7] is 0.33 µM; in assay [8], 0.0839 µM; in [9], 0.804 µM; in assay [10] it was 7.69 µM. The TGI amounted to 10.6 µM in assay [1]; 32.2 µM in assay [2]; 22.8 µM in assay [3]; 8.36 µM in assay [4]; 27 µM in assay [5]; 25.6 µM in assay [6]. Moreover, the TGI stood at 7.23 µM in assay [7], 10.7 µM in [8], 16.4 µM in assay [9] and 28.1 µM in assay [10].

On to `CCN1C(=O)N(CC)C2C1NN=c1s/c(=C\c3ccccn3)c(=O)n12` (centres undefined), for which the GI50 in assay [1] was 0.446 µM; in [2] it was 2.37 µM; in assay [3] it was 1.16 µM; in [4], 4.05 µM; in assay [5], 2.64 µM; in assay [6], 88.5 µM. The GI50 in assay [7] was 2.15 µM; in assay [8] it was 1.57 µM; in assay [9], 0.468 µM; in [10], 0.833 µM. For the same compound, the TGI in assay [1] was more than 100 µM; in assay [2] it was more than 100 µM; in [3], 11.6 µM; in assay [4] it was more than 100 µM; in assay [5], more than 100 µM; in assay [6], more than 100 µM. Also, the TGI in assay [7], in assay [8], in assay [9] and in assay [10] was more than 100 µM throughout.
